From patent US20200199190A1, “Calcitonin Mimetics for Treating Diseases and Disorders” (KeyBioscience AG, priority 2017, published 2020)
“Also recorded” adds a separate entry of the source. Ends that are not written are not given here.

Experiments:
Sprague Dawley Rats = assay: Food intake in healthy Sprague Dawley rats after single s.c. dose; assay type: in vivo, rat; settings: single s.c. dose 2.5 μg/kg; for Food Intake ΔFOOD Sustained Attenuation Hours: SD rats fasted overnight, food intake monitored 0-4 h and 4-24 h; for reduction in food intake within the 4 hour interval / time to which the reduction in food intake was maintained (sustained effect) / size of reduction in food intake compared with the other tested peptides: SD rats; for reduction in food intake within the 4 hour interval: 0-4 hours; for time to which the reduction in food intake was maintained (sustained effect): intervals 0-4 and 4-24 hours; for size of reduction in food intake compared with the other tested peptides: FIG. 4A (KBP-046 to -054) and FIG. 4B (KBP-058 to -063)
Description: FIGS. 4A-43: Protracted attenuation of food intake in SD rats by KBP-046-KBP-054 (FIG. 4A) and KBP-058-KBP-063 (FIG. 4B). After single s.c dose of 2.5 μg/kg of KBP, food intake was monitored in intervals of 0-4 h and 4-24 h to assess the protracted action of individual KBPs. Individual rats were single caged, n=4 in each group.
Rats were single caged four days prior to individual tests. They were randomized by weight into seven groups (Vehicle (0.9% NaCl), KBPs (doses: 2.5 μg/kg). They were fasted overnight and then treated with a single dose of peptide or vehicle in the morning using subcutaneous administration. The food intake was monitored in the following intervals (0-4 hours and 4-24 hours).

Amylin Receptor (AMY-R) = target: T1, Amylin Receptor (AMY-R) (Homo sapiens, UniProt P30988); assay: PathHunter β-arrestin recruitment dose response, amylin receptor activation (CHO-K1 CALCR RAMP3 cells); assay type: cell-based; settings: FIGS. 2A-2B
T1 construct: host or cells: CHO-K1
T1 sequence (P30988 25-474): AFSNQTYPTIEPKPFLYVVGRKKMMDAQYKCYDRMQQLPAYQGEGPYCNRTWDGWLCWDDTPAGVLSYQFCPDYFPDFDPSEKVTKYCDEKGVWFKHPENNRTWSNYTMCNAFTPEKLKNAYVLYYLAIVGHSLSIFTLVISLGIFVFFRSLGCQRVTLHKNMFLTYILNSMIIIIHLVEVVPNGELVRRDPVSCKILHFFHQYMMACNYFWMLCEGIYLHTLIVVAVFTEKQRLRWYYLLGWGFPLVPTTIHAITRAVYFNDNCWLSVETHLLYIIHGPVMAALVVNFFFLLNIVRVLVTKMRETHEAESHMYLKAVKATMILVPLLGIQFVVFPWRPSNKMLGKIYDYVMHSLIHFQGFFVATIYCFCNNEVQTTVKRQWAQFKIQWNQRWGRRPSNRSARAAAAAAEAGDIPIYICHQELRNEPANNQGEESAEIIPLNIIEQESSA
T1 sequence (O60896 24-148 partner): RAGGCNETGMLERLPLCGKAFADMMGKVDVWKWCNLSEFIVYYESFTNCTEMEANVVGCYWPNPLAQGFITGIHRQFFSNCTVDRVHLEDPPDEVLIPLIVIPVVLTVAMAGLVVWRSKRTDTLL
Description: FIGS. 2A-2B: β-arrestin recruitment dose response by KBP-046-KBP-054 (FIG. 2A) and KBP-058-KBP-063 (FIG. 2B) as a function of amylin receptor activation. Dose range is 1 μM to 15 μM and data is shown as fold of vehicle. Screening was conducted in CHO-K1 CALCR RAMP3 Pathhunter cells from DiscoveRx.
(§1) In the following examples, the following materials and methods were employed. The following cell lines expressing the calcitonin, amylin and CGRP receptors were purchased and cultured according to the manufacturer's instructions. • 1. Calcitonin Receptor (CTR): U2OS-CALCR from DiscoveRx (Cat. No.: 93-0566C3). • 2. Amylin Receptor (AMY-R): CHO-K1 CALCR+RAMP3 from DiscoveRx (Cat. No.: 93-0268C2). In independent bioassays, CTR and AMY-R cells were treated with for the indicated timepoints with increasing doses of KBPs identified in Tables 1A and 1B (1000, 250, 62.5, 15.6, 3.9, 1.0, 0.24, 0.06, 0.02 nM and vehicle).
(§2) PathHunter β-Arrestin GPCR assays are whole cell, functional assays that directly measure the ability of a ligand to activate a GPCR by detecting the interaction of β-Arrestin with the activated GPCR. Because β-arrestin recruitment is independent of G-protein signaling, these assays offer a powerful and universal screening and profiling platform that can be used for virtually any Gi-, Gs, or Gq-coupled receptor.
(§3) In this system, the GPCR is fused in frame with the small enzyme fragment ProLink™ and co-expressed in cells stably expressing a fusion protein of β-Arrestin and the larger, N-terminal deletion mutant of β-gal (called enzyme acceptor or EA). Activation of the GPCR stimulates binding of β-Arrestin to the ProLink-tagged GPCR and forces complementation of the two enzyme fragments, resulting in the formation of an active β-gal enzyme. This interaction leads to an increase in enzyme activity that can be measured using chemiluminescent PathHunter® Detection Reagents.
(§4) The assay was performed in white 384 well plates (Greiner Bio-One, 784080). Cells were seeded 2500 cells per well in 10 μL cell-type specific medium the day prior to the experiment. To quantify the GPCR-mediated β-arrestin recruitment the Pathhunter™ Detection Kit (93-0001, DiscoverX) was used and assay performed accordingly to the manufacturer's instructions. Furthermore, data from the Pathhunter™ β-arrestin recruitment assay was normalized to an internal standard to improve the distinction between top KBP performers and non-performers.

[1] = target: T2, Calcitonin Receptor (CTR) (Homo sapiens, UniProt P30988); assay: Prolonged β-arrestin recruitment, calcitonin receptor activation over time (U2OS CALCR cells); assay type: cell-based; settings: single dose of 100 nM at t=0, read up to 72 hours, FIGS. 3A-3B
T2 construct: host or cells: U2OS
T2 sequence (P30988 25-474): T1 sequence (P30988 25-474)
Description: FIGS. 3A-3B: Prolonged β-arrestin recruitment by KBP-046-KBP-054 (FIG. 3A) and KBP-058-KBP-063 (FIG. 3B) and human calcitonin as a function of calcitonin receptor activation. Single dose of 100 nM at t=0 and after 3, 6, 24, and 72 hours after initial treatment, β-arrestin recruitment was assessed to investigate each ligands protracted potential. Data is shown as fold of vehicle. Screening was conducted in U2OS CALCR Pathhunter cells from DiscoveRx.
as §1, §2, §3, §4
Results are seen in FIGS. 1A-1B, 2A-2B and 3A-3B. […] This was done using the calcitonin receptor (CTR): U2OS-CALCR from DiscoveRx (Cat. No.: 93-0566C3) cell line, and as opposed to the classical three hour output, β-arrestin accumulation was conducted over 24, 48 and 72 hour and then analyzed.

## CGNLSTCMLGRLSQDLNKFHTFPQTDVGANAP (not fully specified; ends and bridges not checked) [KBP-063, Calcitonin mimetic peptide]
Sprague Dawley Rats
  Food Intake ΔFOOD Sustained Attenuation Hours: 24 h
  reduction in food intake within the 4 hour interval: reduction in food intake
  time to which the reduction in food intake was maintained (sustained effect): 24 h
  size of reduction in food intake compared with the other tested peptides: far greater reduction in food intake
Amylin Receptor (AMY-R)
  amylin receptor activation (β-arrestin recruitment, fold of vehicle): potent amylin agonists
[1]
  protracted calcitonin receptor activation (prolonged β-arrestin recruitment, fold of vehicle): superior

## KBP-054: Calcitonin mimetic peptide, Table 1 residues CGNLST, positions 7-8 blank, LGRYTQDFHKPQTFPKTDVGANAP
Sprague Dawley Rats
  Food Intake ΔFOOD Sustained Attenuation Hours: 4 h

## KBP-060: Calcitonin mimetic peptide, Table 1 residues CGNLSTCMLGTYTQDFHRLQTFPQTDVGANAP
Sprague Dawley Rats
  Food Intake ΔFOOD Sustained Attenuation Hours: 4 h

## CGNLSTCMLGRLSQDLNKFHTFPKTDVGANAP (not fully specified; ends and bridges not checked) [KBP-047, Calcitonin mimetic peptide]
Sprague Dawley Rats
  Food Intake ΔFOOD Sustained Attenuation Hours: 24 h
  reduction in food intake within the 4 hour interval: reduction in food intake
  time to which the reduction in food intake was maintained (sustained effect): 24 h
  size of reduction in food intake compared with the other tested peptides: largest reduction; also recorded: far greater reduction in food intake
Amylin Receptor (AMY-R)
  amylin receptor activation (β-arrestin recruitment, fold of vehicle): potent amylin agonists
[1]
  protracted calcitonin receptor activation (prolonged β-arrestin recruitment, fold of vehicle): superior

## KBP-052: Calcitonin mimetic peptide, Table 1 residues CSNLSTCMLGTYTQDFHRLQTYPKTAIGVGAP (not fully specified; ends and bridges not checked)
Sprague Dawley Rats
  Food Intake ΔFOOD Sustained Attenuation Hours: 4 h

## CGNLSTCMLGRLTQDLHKLQTFPKTDVGANAP (not fully specified; ends and bridges not checked) [KBP-053, Calcitonin mimetic peptide]
Sprague Dawley Rats
  Food Intake ΔFOOD Sustained Attenuation Hours: 24 h
  reduction in food intake within the 4 hour interval: reduction in food intake
  time to which the reduction in food intake was maintained (sustained effect): 24 h
  size of reduction in food intake compared with the other tested peptides: far greater reduction in food intake
Amylin Receptor (AMY-R)
  amylin receptor activation (β-arrestin recruitment, fold of vehicle): potent amylin agonists
[1]
  protracted calcitonin receptor activation (prolonged β-arrestin recruitment, fold of vehicle): superior

## KBP-048: Calcitonin mimetic peptide, Table 1 residues CGNLSTCMLGTYTQDFNKFNTFPKTDVGANAP
Sprague Dawley Rats
  Food Intake ΔFOOD Sustained Attenuation Hours: 4 h

## KBP-061: Calcitonin mimetic peptide, Table 1 residues CGNLSTCMLGTYTQDFHRLQTFPQTDVGANAP (printed identical to KBP-060) (not fully specified; ends and bridges not checked)
Sprague Dawley Rats
  Food Intake ΔFOOD Sustained Attenuation Hours: 4 h

## KBP-050: Calcitonin mimetic peptide, Table 1 residues CGNLSTCMLGRLSQDLHRLQTYPKTAIGVGAP (not fully specified; ends and bridges not checked)
Sprague Dawley Rats
  Food Intake ΔFOOD Sustained Attenuation Hours: 4 h

## KBP-046: Calcitonin mimetic peptide, Table 1 residues CGNLSTCMLGTYTQDFHRLQTYPKTDVGANAP (not fully specified; ends and bridges not checked)
Sprague Dawley Rats
  Food Intake ΔFOOD Sustained Attenuation Hours: 4 h

## CGNLSTCMLGRLTQDLNKFHTFPKTDVGANAP (not fully specified; ends and bridges not checked) [KBP-062, Calcitonin mimetic peptide]
Sprague Dawley Rats
  Food Intake ΔFOOD Sustained Attenuation Hours: 24 h
  reduction in food intake within the 4 hour interval: reduction in food intake
  time to which the reduction in food intake was maintained (sustained effect): 24 h
  size of reduction in food intake compared with the other tested peptides: largest reduction; also recorded: top performance in the screening; also recorded: far greater reduction in food intake
Amylin Receptor (AMY-R)
  amylin receptor activation (β-arrestin recruitment, fold of vehicle): potent amylin agonists
[1]
  protracted calcitonin receptor activation (prolonged β-arrestin recruitment, fold of vehicle): superior

## CGNLSTCMLGRLTQDFHKLHTFPKTDVGANAP (not fully specified; ends and bridges not checked) [KBP-058, Calcitonin mimetic peptide]
Sprague Dawley Rats
  Food Intake ΔFOOD Sustained Attenuation Hours: 24 h
  reduction in food intake within the 4 hour interval: reduction in food intake
  time to which the reduction in food intake was maintained (sustained effect): 24 h
  size of reduction in food intake compared with the other tested peptides: far greater reduction in food intake
Amylin Receptor (AMY-R)
  amylin receptor activation (β-arrestin recruitment, fold of vehicle): potent amylin agonists
[1]
  protracted calcitonin receptor activation (prolonged β-arrestin recruitment, fold of vehicle): superior

## KBP-051: Calcitonin mimetic peptide, Table 1 residues CSNLSTCMLGRLSQDLHRLQTYPKTAIGVGAP (not fully specified; ends and bridges not checked)
Sprague Dawley Rats
  Food Intake ΔFOOD Sustained Attenuation Hours: 4 h

## KBP-059: Calcitonin mimetic peptide, Table 1 residues CGNLSTCMLGTYTQDLHKLHTFPKTDVGANAP (not fully specified; ends and bridges not checked)
Sprague Dawley Rats
  Food Intake ΔFOOD Sustained Attenuation Hours: 4 h
